ChEMBL document CHEMBL1201862, “PubChem BioAssay data set” (2004)
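Exposure lasted 48 hours, with cells grown in 96-well plates and compounds tested at five concentrations. GI50: concentration for 50% inhibition of growth.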 Activity calls are given as the source filed them. No stated cut-off is given here; in the data, active = GI50 up to about 1.1 µM and inactive = higher.

Tests used:
Experiment in all cases: NCI-60 cell line screen, 48 h
[1] = system: UACC-257
[2] = system: HCC 2998
[3] = system: HL-60
[4] = system: KM12
[5] = system: HOP-92
[6] = system: SK-OV-3
[7] = system: Malme-3M
[8] = system: TK-10
[9] = system: NCI-H522
[10] = system: SN12C
[11] = system: OVCAR-8
[12] = system: A549
[13] = system: OVCAR-4
[14] = system: SK-MEL-5
[15] = system: SF-295
[16] = system: PC-3
[17] = system: RXF 393
[18] = system: SK-MEL-28
[19] = system: SW-620
[20] = system: HCT-15
[21] = system: SF-268
[22] = system: ACHN
[23] = system: RPMI-8226
[24] = system: K562
[25] = system: UACC-62
[26] = system: HOP-62
[27] = system: NCI-H460
[28] = system: MOLT-4
[29] = system: CAKI-1
[30] = system: T47D
[31] = system: COLO 205
[32] = system: 786-0
[33] = system: HCT-116
[34] = system: MDA-N
[35] = system: SF-539
[36] = system: U-251
[37] = system: NCI/ADR-RES
[38] = system: DU-145
[39] = system: A498
[40] = system: MDA-MB-231
[41] = system: SNB-19
[42] = system: NCI-H226
[43] = system: IGROV-1
[44] = system: MDA-MB-435
[45] = system: HT-29
[46] = system: NCI-H23
[47] = system: OVCAR-5
[48] = system: SR
[49] = system: SK-MEL-2
[50] = system: MCF7
[51] = system: SNB-75
[52] = system: LOX IMVI
[53] = system: Hs-578T
[54] = system: UO-31
[55] = system: CCRF-CEM
[56] = system: M14
[57] = system: OVCAR-3

Measured: GI50

CCN(CCCl)c1cc(CN(C)C)cc(NC(=O)c2ccc(C(=O)Nc3ccccc3)cc2)c1
inactive: [1] 1300 nM | [8] 3020 nM | [18] 1190 nM | [25] 1290 nM | [30] 1240 nM | [37] 2630 nM | [40] 1300 nM | [42] 1530 nM | [54] 1910 nM
active: [2] 789 nM | [3] 193 nM | [4] 1060 nM | [5] 414 nM | [6] 971 nM | [7] 191 nM | [9] 109 nM | [10] 767 nM | [11] 417 nM | [12] 420 nM | [13] 288 nM | [14] 194 nM | [15] 348 nM | [16] 340 nM | [17] 152 nM | [19] 150 nM | [21] 337 nM | [22] 218 nM | [23] 307 nM | [24] 406 nM | [26] 314 nM | [27] 275 nM | [28] 284 nM | [29] 650 nM | [31] 1040 nM | [32] 210 nM | [33] 424 nM | [34] 298 nM | [35] 647 nM | [36] 250 nM | [38] 415 nM | [39] 316 nM | [41] 676 nM | [43] 177 nM | [44] 239 nM | [45] 174 nM | [46] 270 nM | [47] 836 nM | [48] 263 nM | [49] 270 nM | [50] 232 nM | [51] 1080 nM | [52] 204 nM | [53] 218 nM | [55] 270 nM | [56] 883 nM
1700 nM: [20]

CC1(C)N=C(N)N=C(N)N1c1ccc(CCCCCCc2ccc(S(=O)(=O)F)cc2)cc1
active: [3] 132 nM | [4] 276 nM | [8] 1020 nM | [10] 28 nM | [12] < 37.6 nM | [15] 114 nM | [19] < 21.1 nM | [22] 274 nM | [24] < 10.5 nM | [25] < 10 nM | [27] < 22.9 nM | [31] 144 nM | [32] < 10 nM | [33] 17 nM | [35] < 18.9 nM | [36] < 35.2 nM | [38] 421 nM | [57] 247 nM | [43] < 39.5 nM | [44] 55.7 nM | [45] < 46.8 nM | [46] 61.7 nM | [48] < 10 nM | [50] 82.8 nM | [55] < 10 nM
857 nM: [20]
inactive: [2] 2230 nM | [6] 8530 nM | [9] 1550 nM | [13] 31800 nM | [18] 3880 nM | [26] 1190 nM | [29] 12300 nM | [30] 8000 nM | [37] 22900 nM | [49] 3720 nM | [51] 3360 nM | [53] 2180 nM | [54] 14100 nM | [56] 1240 nM
